# Legend:
# mfT1R2a/mfT1R3 T105E = mfT1R2a/mfT1R3 T105E (Oryzias latipes, UniProt Q2MHK2+Q2MHK5, Q2MHK2:T105E); experiment: cell-based; conditions: EC50, [Cl-]o=10 mM; unit inferred
# Experimental: (§1) The buffers with lower Cl^− were prepared by progressively replacing NaCl, KCl, CaCl2 and MgCl2 in the buffer with gluconate equivalents[20]. The pH was adjusted to 7.4 with NaOH. Ligands were diluted with the assay buffers at the desired concentrations.
# (§2) Measurements of the responses of the cells by cell-based assay based on the intracellular Ca^2+ mobilization were carried out as described previously with some modifications[20],[34],[46],[47]. Cell lines stably expressing T1R2, T1R3 and chimeric G-protein α-subunit, G16gust44[48], were constructed using the Flp-In pcDNA5/FRT complete system (Thermo Fisher Scientific, Waltham, MA, USA) described in our previous studies[34],[46]. […] Fluorescence changes (i.e., excitation at 485 nm and emission at 525 nm with a cutoff at 515 nm) were monitored at 2 s intervals. […] The response of each well was determined as ∆RFU (delta relative fluorescent units), which was calculated as (maximum fluorescent value)—(minimum fluorescent value). […] Dose‒response fitting curves were calculated by Prism 9 (GraphPad Software, San Diego, CA) using nonlinear regression (log(agonist) vs. response—variable slope), based on the integrated data from the several independent experiments.
# mfT1R2a K265A/mfT1R3 = mfT1R2a K265A/mfT1R3 (Oryzias latipes, UniProt Q2MHK2+Q2MHK5, Q2MHK5:K265A); experiment: cell-based; conditions: EC50, [Cl-]o=10 mM; no unit printed with values, x-axis title L-Gln [M]
# Experimental: as §1
# (§3) Measurements of the responses of the cells by cell-based assay based on the intracellular Ca^2+ mobilization were carried out as described previously with some modifications[20],[34],[46],[47]. […] The cells were seeded in 96-well plates (clear-bottomed CellBIND surface plate, Corning, Glendale, AZ, USA) coated with ε-poly-L-lysine (Cosmo Bio, Tokyo, Japan) at approximately 70,000 cells per well. After 20 h, the medium was removed and replaced with high Cl^− buffer. […] Fluorescence changes (i.e., excitation at 485 nm and emission at 525 nm with a cutoff at 515 nm) were monitored at 2 s intervals. […] The response of each well was determined as ∆RFU (delta relative fluorescent units), which was calculated as (maximum fluorescent value)—(minimum fluorescent value). […] Dose‒response fitting curves were calculated by Prism 9 (GraphPad Software, San Diego, CA) using nonlinear regression (log(agonist) vs. response—variable slope), based on the integrated data from the several independent experiments.
# mfT1R2a K265E/mfT1R3 = mfT1R2a K265E/mfT1R3 (Oryzias latipes, UniProt Q2MHK2+Q2MHK5, Q2MHK5:K265E); experiment: cell-based; conditions: EC50, [Cl-]o=10 mM; no unit printed with values, x-axis title L-Gln [M]
# Experimental: as §1, §2
# mfT1R2a K295P/mfT1R3 = mfT1R2a K295P/mfT1R3 (Oryzias latipes, UniProt Q2MHK2+Q2MHK5, Q2MHK5:K295P); experiment: cell-based; conditions: EC50, [Cl-]o=10 mM; no unit printed with values, x-axis title L-Gln [M]
# Experimental: as §1, §2
# mfT1R2a/mfT1R3 = biological target: T1, mfT1R2a/mfT1R3 (Oryzias latipes, UniProt Q2MHK2+Q2MHK5); experiment: Ca2+ mobilization dose-response assay, stable cells expressing mfT1R2a/mfT1R3 with G16gust44
# T1 sequence (Q2MHK5 20-819): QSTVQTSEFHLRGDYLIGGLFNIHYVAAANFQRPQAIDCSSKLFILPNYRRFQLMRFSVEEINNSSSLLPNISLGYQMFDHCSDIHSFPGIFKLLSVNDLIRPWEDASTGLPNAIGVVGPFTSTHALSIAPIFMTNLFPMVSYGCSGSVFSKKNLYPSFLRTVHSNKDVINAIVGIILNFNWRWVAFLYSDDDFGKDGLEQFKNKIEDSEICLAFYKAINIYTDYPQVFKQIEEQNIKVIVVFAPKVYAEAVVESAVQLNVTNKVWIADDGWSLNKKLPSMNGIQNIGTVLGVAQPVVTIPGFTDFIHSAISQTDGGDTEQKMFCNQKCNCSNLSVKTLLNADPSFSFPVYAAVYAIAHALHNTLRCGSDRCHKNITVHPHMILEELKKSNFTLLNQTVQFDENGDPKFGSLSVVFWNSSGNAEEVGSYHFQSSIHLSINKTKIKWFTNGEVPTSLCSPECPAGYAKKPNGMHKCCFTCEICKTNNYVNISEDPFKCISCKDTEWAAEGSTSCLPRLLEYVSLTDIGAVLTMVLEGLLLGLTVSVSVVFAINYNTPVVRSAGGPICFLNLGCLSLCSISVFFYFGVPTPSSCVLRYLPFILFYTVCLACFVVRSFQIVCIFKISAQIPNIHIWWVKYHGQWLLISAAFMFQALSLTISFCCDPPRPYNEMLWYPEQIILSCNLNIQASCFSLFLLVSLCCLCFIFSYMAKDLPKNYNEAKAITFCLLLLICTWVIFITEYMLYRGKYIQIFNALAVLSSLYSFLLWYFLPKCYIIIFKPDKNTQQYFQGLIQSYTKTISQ
# T1 sequence (Q2MHK2 20-853): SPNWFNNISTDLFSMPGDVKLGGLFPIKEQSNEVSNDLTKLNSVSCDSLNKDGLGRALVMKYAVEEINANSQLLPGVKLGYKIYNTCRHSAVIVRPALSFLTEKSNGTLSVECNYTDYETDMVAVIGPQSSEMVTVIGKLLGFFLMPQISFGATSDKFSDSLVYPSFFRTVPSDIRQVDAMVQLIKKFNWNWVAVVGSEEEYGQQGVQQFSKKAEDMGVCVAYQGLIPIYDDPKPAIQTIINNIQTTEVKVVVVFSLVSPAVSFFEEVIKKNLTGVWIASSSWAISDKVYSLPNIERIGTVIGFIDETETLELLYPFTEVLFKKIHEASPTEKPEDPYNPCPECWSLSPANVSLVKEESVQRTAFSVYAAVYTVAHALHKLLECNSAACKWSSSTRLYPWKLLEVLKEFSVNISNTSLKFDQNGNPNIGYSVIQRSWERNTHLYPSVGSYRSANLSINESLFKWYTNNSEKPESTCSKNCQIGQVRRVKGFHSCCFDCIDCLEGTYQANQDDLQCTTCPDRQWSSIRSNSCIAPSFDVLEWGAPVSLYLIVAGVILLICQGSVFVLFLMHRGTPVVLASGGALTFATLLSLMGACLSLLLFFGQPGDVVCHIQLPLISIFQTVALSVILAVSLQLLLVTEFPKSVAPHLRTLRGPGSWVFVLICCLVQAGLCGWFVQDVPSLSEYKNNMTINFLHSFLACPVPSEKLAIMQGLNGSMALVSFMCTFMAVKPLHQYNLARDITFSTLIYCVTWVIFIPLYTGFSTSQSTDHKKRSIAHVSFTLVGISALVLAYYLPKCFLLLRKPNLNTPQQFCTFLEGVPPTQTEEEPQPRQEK
# Experimental: as §1
# (§4) Measurements of the responses of the cells by cell-based assay based on the intracellular Ca^2+ mobilization were carried out as described previously with some modifications[20],[34],[46],[47]. […] The cells were seeded in 96-well plates (clear-bottomed CellBIND surface plate, Corning, Glendale, AZ, USA) coated with ε-poly-L-lysine (Cosmo Bio, Tokyo, Japan) at approximately 70,000 cells per well. After 20 h, the medium was removed and replaced with high Cl^− buffer. After 3 h 30 min incubation at 27 °C, cells were loaded with 5 µM calcium-indicator dye Fluo-8 AM (AAT Bioquest, Sunnyvale, CA, USA) diluted in high Cl^− buffer. After incubation for 30 min at 27 °C, the cells were washed with buffers containing appropriate concentrations of Cl^−. The cellular assay was initiated after 3–5 min of resting and was completed within 5 min. The measurements were made using FlexStation 3 (Molecular Devices, Sunnyvale, CA, USA) at 27 °C. Fluorescence changes (i.e., excitation at 485 nm and emission at 525 nm with a cutoff at 515 nm) were monitored at 2 s intervals. A 100-µL aliquot of assay buffer supplemented with 2 × ligands was added at 20 s, and scanning was continued for an additional 40 s. The response of each well was determined as ∆RFU (delta relative fluorescent units), which was calculated as (maximum fluorescent value)—(minimum fluorescent value). […] Such normalized data from more than three independent experiments are reported as the mean ± standard error of the mean (SEM). Dose‒response fitting curves were calculated by Prism 9 (GraphPad Software, San Diego, CA) using nonlinear regression (log(agonist) vs. response—variable slope), based on the integrated data from the several independent experiments.
# mfT1R2b E260K/mfT1R3 = type: cell-based, medaka fish; conditions: 10 mM vs high Cl- buffer
# Experimental: as §1, §3
# mfT1R2b E260A/mfT1R3 = type: cell-based, medaka fish; conditions: 10 mM vs high Cl- buffer
# Experimental: as §1, §3
# mfT1R2c/mfT1R3 T105E = mfT1R2c/mfT1R3 T105E (Oryzias latipes, UniProt Q2MHK2+Q2MHK3, Q2MHK2:T105E); experiment: cell-based; conditions: EC50, [Cl-]o=10 mM; unit inferred
# Experimental: as §1, §3
# mfT1R2c/mfT1R3 = mfT1R2c/mfT1R3 (Oryzias latipes, UniProt Q2MHK2+Q2MHK3); experiment: Ca2+ mobilization dose-response assay, stable cells expressing mfT1R2c/mfT1R3 with G16gust44
# Experimental: as §1, §4
# zfT1R2b/zfT1R3 = biological target: T2, zfT1R2b/zfT1R3 (Danio rerio, UniProt A0A8M1NDZ5+Q2MHK9); experiment: Ca2+ mobilization dose-response assay, stable cells expressing zfT1R2b/zfT1R3 with G16gust44; conditions: 10 mM vs 141.4 mM Cl- buffer
# T2 sequence (A0A8M1NDZ5 18-823): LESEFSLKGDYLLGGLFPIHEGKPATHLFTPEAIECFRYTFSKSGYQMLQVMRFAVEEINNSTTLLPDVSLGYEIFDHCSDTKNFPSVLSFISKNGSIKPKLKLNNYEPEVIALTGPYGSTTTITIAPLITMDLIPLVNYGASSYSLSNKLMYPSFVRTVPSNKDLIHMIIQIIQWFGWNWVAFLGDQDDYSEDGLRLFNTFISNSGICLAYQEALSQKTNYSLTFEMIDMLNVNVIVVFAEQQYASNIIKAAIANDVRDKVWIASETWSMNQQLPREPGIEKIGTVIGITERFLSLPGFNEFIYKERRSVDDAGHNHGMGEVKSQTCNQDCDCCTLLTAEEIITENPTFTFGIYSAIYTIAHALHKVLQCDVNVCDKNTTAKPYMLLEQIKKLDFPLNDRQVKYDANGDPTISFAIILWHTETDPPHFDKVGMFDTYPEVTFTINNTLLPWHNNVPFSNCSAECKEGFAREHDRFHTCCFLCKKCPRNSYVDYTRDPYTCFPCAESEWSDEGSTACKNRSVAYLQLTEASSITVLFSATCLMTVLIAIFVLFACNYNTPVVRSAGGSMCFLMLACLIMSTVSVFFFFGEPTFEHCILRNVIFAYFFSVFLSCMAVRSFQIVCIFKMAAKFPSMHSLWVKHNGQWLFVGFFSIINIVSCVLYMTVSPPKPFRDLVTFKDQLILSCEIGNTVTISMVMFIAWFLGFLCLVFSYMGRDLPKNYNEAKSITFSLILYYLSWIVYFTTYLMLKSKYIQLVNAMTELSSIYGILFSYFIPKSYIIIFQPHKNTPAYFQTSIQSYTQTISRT
# T2 sequence (Q2MHK9 25-850): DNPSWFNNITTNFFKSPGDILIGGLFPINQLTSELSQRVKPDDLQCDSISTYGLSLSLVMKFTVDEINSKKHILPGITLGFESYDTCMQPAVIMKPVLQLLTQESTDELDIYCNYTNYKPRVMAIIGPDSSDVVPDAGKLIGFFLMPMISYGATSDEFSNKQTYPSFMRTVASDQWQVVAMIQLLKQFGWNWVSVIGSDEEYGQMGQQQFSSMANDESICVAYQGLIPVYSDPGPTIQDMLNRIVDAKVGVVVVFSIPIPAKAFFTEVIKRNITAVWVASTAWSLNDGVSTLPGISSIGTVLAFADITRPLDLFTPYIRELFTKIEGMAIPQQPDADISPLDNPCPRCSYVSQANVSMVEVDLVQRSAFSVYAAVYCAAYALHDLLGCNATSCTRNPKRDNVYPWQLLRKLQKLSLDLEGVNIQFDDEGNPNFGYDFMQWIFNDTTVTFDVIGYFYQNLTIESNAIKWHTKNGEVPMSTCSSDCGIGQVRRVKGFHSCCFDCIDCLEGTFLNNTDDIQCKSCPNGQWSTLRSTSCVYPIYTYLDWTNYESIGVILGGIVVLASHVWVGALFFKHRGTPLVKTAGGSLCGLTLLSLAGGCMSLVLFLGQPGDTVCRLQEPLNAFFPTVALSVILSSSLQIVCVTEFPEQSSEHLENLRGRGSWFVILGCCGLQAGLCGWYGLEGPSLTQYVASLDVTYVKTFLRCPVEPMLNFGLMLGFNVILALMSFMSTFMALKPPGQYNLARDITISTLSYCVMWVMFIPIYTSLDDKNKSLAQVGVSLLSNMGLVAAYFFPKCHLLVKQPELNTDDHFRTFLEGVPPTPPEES
# Experimental: as §1, §4
# zfT1R2a/zfT1R3 = biological target: T3, zfT1R2a/zfT1R3 (Danio rerio, UniProt A0A8M1N8F9+Q2MHK9); experiment: Ca2+ mobilization dose-response assay, stable cells expressing zfT1R2a/zfT1R3 with G16gust44
# T3 sequence (A0A8M1N8F9 26-825): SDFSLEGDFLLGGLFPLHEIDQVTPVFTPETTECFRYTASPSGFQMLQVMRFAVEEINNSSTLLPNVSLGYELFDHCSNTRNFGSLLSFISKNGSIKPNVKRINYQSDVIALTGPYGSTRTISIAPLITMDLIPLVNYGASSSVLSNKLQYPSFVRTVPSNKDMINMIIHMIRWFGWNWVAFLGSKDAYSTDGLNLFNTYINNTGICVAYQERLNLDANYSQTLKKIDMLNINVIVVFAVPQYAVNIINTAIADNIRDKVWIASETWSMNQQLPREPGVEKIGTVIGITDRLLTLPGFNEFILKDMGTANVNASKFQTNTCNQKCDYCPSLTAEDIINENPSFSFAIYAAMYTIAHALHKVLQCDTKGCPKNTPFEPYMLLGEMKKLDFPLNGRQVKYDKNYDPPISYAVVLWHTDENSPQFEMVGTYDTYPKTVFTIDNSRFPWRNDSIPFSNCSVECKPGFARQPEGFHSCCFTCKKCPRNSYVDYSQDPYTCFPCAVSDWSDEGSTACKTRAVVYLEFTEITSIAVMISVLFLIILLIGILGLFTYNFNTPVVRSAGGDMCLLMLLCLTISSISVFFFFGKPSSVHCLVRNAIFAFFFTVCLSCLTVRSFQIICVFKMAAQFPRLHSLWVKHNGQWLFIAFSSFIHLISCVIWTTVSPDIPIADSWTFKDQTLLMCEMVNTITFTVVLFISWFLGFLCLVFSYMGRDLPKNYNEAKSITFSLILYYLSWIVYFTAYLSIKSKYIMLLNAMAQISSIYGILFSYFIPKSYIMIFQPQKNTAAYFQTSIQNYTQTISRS
# T3 sequence (Q2MHK9 25-850): T2 sequence (Q2MHK9 25-850)
# Experimental: as §1, §4
# mfT1R2b/mfT1R3 = experiment: Ca2+ mobilization dose-response assay, stable cells expressing mfT1R2b/mfT1R3 with G16gust44; conditions: 10 mM vs 141.4 mM Cl- buffer
# Experimental: as §1, §3
# [1] = EC50, [Cl-]o=10 mM, unit inferred
# mfT1R2c/mfT1R3, sequence (Q2MHK3 22-818, one chain of several): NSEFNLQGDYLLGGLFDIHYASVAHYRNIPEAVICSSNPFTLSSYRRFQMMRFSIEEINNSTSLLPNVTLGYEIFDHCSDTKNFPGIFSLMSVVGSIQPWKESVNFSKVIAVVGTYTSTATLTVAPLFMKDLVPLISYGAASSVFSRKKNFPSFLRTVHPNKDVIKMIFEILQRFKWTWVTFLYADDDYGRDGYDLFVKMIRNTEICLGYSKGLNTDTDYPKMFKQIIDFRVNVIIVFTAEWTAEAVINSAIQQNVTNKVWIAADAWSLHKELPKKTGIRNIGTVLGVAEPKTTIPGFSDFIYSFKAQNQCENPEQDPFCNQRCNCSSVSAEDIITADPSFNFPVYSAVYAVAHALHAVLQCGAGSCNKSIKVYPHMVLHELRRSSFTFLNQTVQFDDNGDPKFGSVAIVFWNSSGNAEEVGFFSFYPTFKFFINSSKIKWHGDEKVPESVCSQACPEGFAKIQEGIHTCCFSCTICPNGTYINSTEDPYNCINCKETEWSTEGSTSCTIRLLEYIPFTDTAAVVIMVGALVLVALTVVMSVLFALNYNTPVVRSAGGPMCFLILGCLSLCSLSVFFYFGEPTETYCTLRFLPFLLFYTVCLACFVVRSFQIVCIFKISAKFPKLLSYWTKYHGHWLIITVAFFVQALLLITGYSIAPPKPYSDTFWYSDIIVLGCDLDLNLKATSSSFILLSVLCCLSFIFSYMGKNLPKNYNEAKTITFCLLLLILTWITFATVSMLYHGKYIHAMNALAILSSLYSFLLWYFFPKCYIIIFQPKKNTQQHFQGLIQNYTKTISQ
# mfT1R2a/mfT1R3 T105E, sequence (Q2MHK2 entry or part of it T105E, one chain of several): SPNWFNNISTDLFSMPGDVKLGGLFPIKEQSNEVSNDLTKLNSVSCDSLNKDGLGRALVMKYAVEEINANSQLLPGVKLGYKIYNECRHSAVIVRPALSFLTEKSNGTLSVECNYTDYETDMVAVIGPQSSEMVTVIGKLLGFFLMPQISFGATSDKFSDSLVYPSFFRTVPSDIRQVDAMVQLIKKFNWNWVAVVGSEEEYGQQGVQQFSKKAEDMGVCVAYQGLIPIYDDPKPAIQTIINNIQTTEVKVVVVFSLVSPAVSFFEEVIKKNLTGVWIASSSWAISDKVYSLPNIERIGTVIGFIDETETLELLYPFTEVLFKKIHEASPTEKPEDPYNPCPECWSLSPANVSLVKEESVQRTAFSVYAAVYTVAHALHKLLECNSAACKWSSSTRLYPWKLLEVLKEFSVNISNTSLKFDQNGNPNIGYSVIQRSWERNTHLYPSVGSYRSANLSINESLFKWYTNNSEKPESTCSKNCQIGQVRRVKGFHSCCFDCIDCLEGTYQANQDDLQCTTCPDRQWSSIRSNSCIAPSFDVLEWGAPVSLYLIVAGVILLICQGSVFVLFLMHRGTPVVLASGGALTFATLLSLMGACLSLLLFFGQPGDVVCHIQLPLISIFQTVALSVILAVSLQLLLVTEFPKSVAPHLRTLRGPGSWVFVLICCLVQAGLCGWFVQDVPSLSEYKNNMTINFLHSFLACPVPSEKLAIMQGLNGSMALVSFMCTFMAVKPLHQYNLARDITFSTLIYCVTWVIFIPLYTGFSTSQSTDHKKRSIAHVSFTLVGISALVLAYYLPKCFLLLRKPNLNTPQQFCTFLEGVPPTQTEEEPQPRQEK
# mfT1R2c/mfT1R3 T105E, sequence (Q2MHK2 entry or part of it T105E): as the sequence (Q2MHK2 entry or part of it T105E, one chain of several) above
# mfT1R2c/mfT1R3 T105E, sequence (Q2MHK3 entry or part of it): as the sequence (Q2MHK3 22-818, one chain of several) above
# mfT1R2a K265A/mfT1R3, sequence (Q2MHK5 entry or part of it K265A, one chain of several): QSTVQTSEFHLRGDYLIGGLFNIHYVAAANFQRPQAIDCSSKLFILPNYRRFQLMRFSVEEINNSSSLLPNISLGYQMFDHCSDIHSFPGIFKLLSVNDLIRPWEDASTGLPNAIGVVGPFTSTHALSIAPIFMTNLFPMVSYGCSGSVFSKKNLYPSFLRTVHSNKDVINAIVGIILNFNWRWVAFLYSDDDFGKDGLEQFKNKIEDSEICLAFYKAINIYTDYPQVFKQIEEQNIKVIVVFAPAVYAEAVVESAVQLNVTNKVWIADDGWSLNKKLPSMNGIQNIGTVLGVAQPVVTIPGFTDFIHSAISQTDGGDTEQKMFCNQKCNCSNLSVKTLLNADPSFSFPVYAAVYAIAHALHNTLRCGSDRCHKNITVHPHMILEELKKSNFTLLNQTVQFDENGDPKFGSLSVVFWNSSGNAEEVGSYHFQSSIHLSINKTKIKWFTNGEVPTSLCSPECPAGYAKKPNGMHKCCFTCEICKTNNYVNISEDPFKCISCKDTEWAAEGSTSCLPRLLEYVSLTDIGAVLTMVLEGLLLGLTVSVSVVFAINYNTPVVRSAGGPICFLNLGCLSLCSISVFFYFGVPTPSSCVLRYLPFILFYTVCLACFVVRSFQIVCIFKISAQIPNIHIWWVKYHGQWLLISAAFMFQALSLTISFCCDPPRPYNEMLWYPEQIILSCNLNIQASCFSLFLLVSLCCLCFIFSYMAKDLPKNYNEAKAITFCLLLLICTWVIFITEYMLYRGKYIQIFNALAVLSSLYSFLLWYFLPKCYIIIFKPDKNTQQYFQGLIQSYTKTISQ
# mfT1R2a K295P/mfT1R3, sequence (Q2MHK5 entry or part of it K295P, one chain of several): as the sequence (Q2MHK5 entry or part of it K265A, one chain of several) above, with A246K, K276P counted along it
# mfT1R2a K265E/mfT1R3, sequence (Q2MHK5 entry or part of it K265E, one chain of several): as the sequence (Q2MHK5 entry or part of it K265A, one chain of several) above, with A246E counted along it
Structure (SMILES),EC50 (mfT1R2a/mfT1R3 T105E) [µM],EC50 (mfT1R2a K265A/mfT1R3) [M],EC50 (mfT1R2a K265E/mfT1R3) [M],EC50 (mfT1R2a K295P/mfT1R3) [M],EC50 in 10 mM Cl- buffer relative to high Cl- buffer (mfT1R2a/mfT1R3; 10 mM vs 141.4 mM Cl- buffer),EC50 (mfT1R2a/mfT1R3; [1]) [µM],effect of [Cl-]o on sensitivity (mfT1R2b E260K/mfT1R3),effect of [Cl-]o on sensitivity (mfT1R2b E260A/mfT1R3),EC50 (mfT1R2c/mfT1R3 T105E) [µM],increase in EC50 in 10 mM Cl- buffer compared to high Cl- buffer (mfT1R2c/mfT1R3; 10 mM vs 141.4 mM Cl- buffer),EC50 (mfT1R2c/mfT1R3; [1]) [µM],change of EC50 value with [Cl-]o (mfT1R2c/mfT1R3; range from 10 to 80 mM [Cl-]o),EC50 in 10 mM Cl- buffer relative to high Cl- buffer (zfT1R2b/zfT1R3),EC50 in 10 mM Cl- buffer relative to high Cl- buffer (zfT1R2a/zfT1R3; 10 mM vs 141.4 mM Cl- buffer),EC50 (zfT1R2a/zfT1R3; [1]) [µM],effect of anionic buffer composition on sensitivity (mfT1R2b/mfT1R3)
"NC(=O)CC[C@H](N)C(=O)O [L-Gln, L-glutamine]",864,0.000283,0.000208,0.000368,approximately 6.5 times higher,403,,,,,,,,,,
"O=C(O)[C@@H]1CCCN1 [L-Pro, L-proline]",,,,,,,hardly affected,hardly affected,26.3,approximately threefold increase,15,almost unchanged,approximately half,approximately 5 times higher,437,hardly affected
